Yield data for 1 substance are collected here from patent US20100075856A1, “METHOD FOR INCREASING THE DRY BIOMASS OF PLANTS” (BASF SE, priority 2006, published 2010).

Assay type in all cases: in vivo
Experiment [1] relates to Corn of the cultivar DKB 390. In words: Biomass of corn grains, field trial, free disease conditions (example 1.1). As to conditions: corn DKB 390, 150 g of active compound per ha, spray, epoxiconazole pre-treatment, grains 14 to 20% residual moisture. As for the experimental part: (§1) Corn of the cultivar DKB 390 was cultivated under customary conditions (150 kg/ha nitrogen) at Campinas (Brazil) in 2005/2006. One part of the trial was treated with pyraclostrobin (in the form of the commercially available product F500 from BASF; diluted with water to a concentration 0.5 g/l) at the growing stage 34/35 and the other part at GS 55/57 by spraying about 300 l/ha (150 g of active compound per ha). Control plants were treated at GS 35/35 and 55/57, respectively, with a formulation according to that of F500 but without the active compound pyraclostrobin (“blank formulation”). One week prior to the treatment either with the active formulation or with the blank formulation, the plants were treated with epoxiconazole in order to ensure absence of fungal stress. 55 days after the application at GS 55/57, the plants were harvested and the corn grains having a residual moisture content of 14 to 20% by weight, based on the total weight of the grains, were weighed.

The test system of experiment [2] is Corn of the cultivar DKB 390. In words: Biomass of corn grains, field trial, disease conditions (example 1.2). As to conditions: corn DKB 390, 150 g of active compound per ha, without epoxiconazole pre-treatment, grains 14 to 22% residual moisture. As for the experimental part:
as §1
The experiments were carried out according to example 1.1, however without the epoxiconazole pre-treatment. Moreover, the concentration of pyraclostrobin in the spray liquor was 1 g/l and 150 l/ha were sprayed (150 g of active compound per ha). The residual moisture content of the grains was 14 to 22% by weight, based on the total weight of the grains.

In experiment [3] the test system is Corn of the cultivar DKB 390. Briefly: Biomass of corn grains, field trial, free disease conditions, another field (example 1.3). The note with it: corn DKB 390, another field. As for the experimental part: as §1
The experiments were carried out according to example 1.1, however using another field.

Experiment [4] concerns corn of the cultivar DKB 455. Briefly: Biomass of corn grains, field trial, free disease conditions (example 1.4). As for the experimental part:
as §1
The experiments were carried out according to example 1.1, however using corn of the cultivar DKB 455.

In experiment [5] the test system is Soybean of the variety Conquista. Briefly: Biomass of soybean grains, field trial, free disease conditions (example 2.1). The note with it: spray, epoxiconazole pre-treatment, grains 13 to 18% residual moisture. As for the experimental part:
(§2) Soybean of the variety Conquista was cultivated under customary conditions at Campinas (Brazil) in 2005/2006. One part of the trial was treated with pyraclostrobin (in the form of the commercially available product F500 from BASF; diluted with water to a concentration of 0.42 g/l) at the growing stage 61/62 and the other part at GS 65/67 by spraying about 350 l/ha (150 g of active compound per ha). Control plants were treated at GS 61/62 and 65/67, respectively, with a formulation according to that of F500 but without the active compound pyraclostrobin (“blank formulation”). One week prior to the treatment either with the active formulation or with the blank formulation, the plants were treated with epoxiconazole in order to ensure absence of fungal stress. 56 days after the application at GS 65/67, the plants were harvested and the soybean grains having a residual moisture content of 13 to 18% by weight, based on the total weight of the grains, were weighed.

Experiment [6] shares this test system. Briefly: Biomass of soybean grains, field trial, disease conditions (example 2.2). The note with it: without epoxiconazole pre-treatment, grains 13 to 22% residual moisture. As for the experimental part:
as §2
The experiments were carried out according to example 2.1, however without the epoxiconazole pre-treatment. The residual moisture content was 13 to 22% by weight, based on the total weight of the grains.

[7] abbreviates: treated at GS 61/62, 150 g of active compound per ha.
[8] abbreviates: treated at GS 65/67, 150 g of active compound per ha.

Consider pyraclostrobin, for which the Yield in experiment [1] (treated at GS 34/35) is 10.4 ton/ha; in experiment [1] (treated at GS 55/57) it was 10.6 ton/ha; in experiment [2] (treated at GS 34/35), 8.7 ton/ha; in experiment [2] (treated at GS 55/57), 8.8 ton/ha; in experiment [3] (treated at GS 34/35, 150 g of active compound per ha) it was 8.0 ton/ha; in experiment [3] (treated at GS 55/57, 150 g of active compound per ha) it was 8.3 ton/ha. Moreover, the Yield in experiment [4] (corn DKB 455, treated at GS 34/35, 150 g of active compound per ha) was 8.6 ton/ha; in experiment [4] (corn DKB 455, treated at GS 55/57, 150 g of active compound per ha) it was 9.2 ton/ha; in experiment [5] (setting [7]) it was 2254 kg/ha; in experiment [5] (setting [8]) it was 2209 kg/ha; in experiment [6] (setting [7]), 2163 kg/ha; in experiment [6] (setting [8]), 2120 kg/ha.
